18 molecules from US10961215B2, “N-aryl and N-heteroaryl piperidine derivatives as liver X receptor beta agonists, compositions, and their use” (Merck Sharp & Dohme Corp., priority 2016, dated 2021) can be followed below.

The target of assay [1] is T1, GST tagged LXRalpha LBD (ligand binding domain) (Homo sapiens, UniProt Q13133).
T1 construct: purchased Invitrogen pv4655
T1 sequence (Q13133 209-447 limits assumed): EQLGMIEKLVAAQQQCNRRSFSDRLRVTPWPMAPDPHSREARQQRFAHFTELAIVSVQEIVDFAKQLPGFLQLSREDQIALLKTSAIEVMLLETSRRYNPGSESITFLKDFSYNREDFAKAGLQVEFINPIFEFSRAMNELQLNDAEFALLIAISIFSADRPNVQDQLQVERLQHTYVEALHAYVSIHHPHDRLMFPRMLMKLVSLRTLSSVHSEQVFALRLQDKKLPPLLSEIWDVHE
The experiment in a line: LanthaScreen TR-FRET Liver X Receptor Coactivator Assay, LXR alpha-LBD (co-activator recruitment; IP and % Emax relative to T0901317). The assay is classed as biochemical. The following applies: for LXR alpha IP (nM) / EC50: Inflection Point of co-activator recruitment, LXR alpha-LBD, TR-FRET; for Emax / LXR alpha actiivty at max dose (%): efficacy at max dose in relation to reference T0901317, LXR alpha-LBD; for Emax: read-out: LXR alpha actiivty at max dose (%). The procedure:
(§1) Potency (Inflection Point, IP) and efficacy (Emax) are evaluated via compound-induced co-activator recruitment to glutathione-S-transferase (GST) tagged LXRbeta and LXRalpha LBD (ligand binding domain) proteins in relation to reference dual agonist compound T0901317 (N-(2,2,2-Trifluoroethyl)-N-[4-[2,2,2-trifluoro-1-hydroxy-1-(trifluoromethyl)ethyl]phenyl]benzenesulfonamide) using the LanthaScreen™ TR-FRET Liver X Receptor Coactivator Assays according to manufacturer's instructions (Invitrogen catalog number pv4658.pps and pv4655). While running the LanthaScreen™ TR-FRET Liver X Receptor Coactivator Assay, LXR alpha-LBD or LXR beta-LBD was added to ligand test compounds followed by addition of a mixture of a fluorescein-labelled coactivator peptide and terbium-conjugated anti-GST antibody. After an incubation period at room temperature, TR-FRET (time-resolved fluorescence resonance energy transfer) was measured using a filter-based instrument capable of TR-FRET, e.g. PerkinElmer Envision.
A general note: Time-resolved FRET reads energy transfer from a long-lived donor to a nearby acceptor.

Assay [2] has as its target T2, GST tagged LXRbeta LBD (ligand binding domain) (Homo sapiens, UniProt P55055).
T2 construct: purchased Invitrogen pv4658.pps
T2 sequence (P55055 222-460 limits assumed): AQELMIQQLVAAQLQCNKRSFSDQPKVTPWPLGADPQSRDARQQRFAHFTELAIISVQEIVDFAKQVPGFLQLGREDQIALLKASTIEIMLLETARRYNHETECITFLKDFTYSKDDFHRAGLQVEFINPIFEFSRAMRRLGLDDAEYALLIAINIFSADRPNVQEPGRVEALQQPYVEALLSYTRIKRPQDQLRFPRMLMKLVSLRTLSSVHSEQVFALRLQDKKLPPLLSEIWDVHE
In words: LanthaScreen TR-FRET Liver X Receptor Coactivator Assay, LXR beta-LBD (co-activator recruitment; IP and % Emax relative to T0901317). The assay is classed as biochemical. The following applies: for EC50: Inflection Point of co-activator recruitment, LXR beta-LBD, TR-FRET; for Emax / LXR beta actiivty at max dose (%): efficacy at max dose in relation to reference T0901317, LXR beta-LBD; for Emax: read-out: LXR beta actiivty at max dose (%). How it is done:
as §1

For orientation: EC50 means the concentration at which the effect is half-maximal. Read a low EC50 as higher potency in that assay. For `COc1cccc([C@@](O)(C(=O)N(C)C[C@H](C)CC2CCN(c3ccc(C(=O)N(C)C)c(Cl)n3)CC2)C(F)(F)F)c1` (single isomer, unassigned) [Example 3-1], in assay [1], the “LXR alpha IP (nM)” value is listed as “No IP” and the Emax came to 16%. Also, in assay [2], it took 25 nM to reach a half-maximal effect (EC50) and the Emax was found to be 70%.
For `COc1cccc([C@@](O)(C(=O)N(C)CC(C)CC2CCN(c3ccc(C(=O)N(C)C)c(Cl)n3)CC2)C(F)(F)F)c1` (single isomer, unassigned) [Example 3-2], in that order: “No IP”, 0%, 53 nM and 81%.
On to `CN(C)C(=O)c1ccc(N2CCC(CCCN(C)C(=O)C(O)(c3ccccc3)C(F)(F)F)CC2)cc1Cl` (single isomer, unassigned) [Example 4-4, 2-chloro-N,N-dimethyl-4-(4-(3-(3,3,3-trifluoro-2-hydroxy-N-methyl-2-phenylpropanamido)propyl)piperidin-1-yl)benzamide], for which, in assay [1], the half-maximal effective concentration (EC50) came to 1580 nM and the Emax amounted to 14%. For the same molecule, in assay [2], the midpoint of the response, the EC50, lay at 45 nM and the “LXR beta actiivty at max dose (%)” value is given as 59%.
As for `CN(C)C(=O)c1ccc(N2CCC(CCCN(C)C(=O)C(O)(c3ccccc3)C(F)(F)F)CC2)cc1Cl` (single isomer, unassigned) [Example 4-6, 2-chloro-N,N-dimethyl-4-(4-(3-(3,3,3-trifluoro-2-hydroxy-N-methyl-2-phenylpropanamido)propyl)piperidin-1-yl)benzamide], in assay [1], the concentration for a half-maximal effect (EC50) was 677 nM and the “LXR alpha actiivty at max dose (%)” value is listed as 15%. In assay [2], the EC50 stood at 77 nM and the “LXR beta actiivty at max dose (%)” value is given as 73%.
On to `CN(C)C(=O)c1ccc(N2CCC(CCCN(C)C(=O)C(O)(c3ccccc3)C(F)(F)F)CC2)cc1Cl` (single isomer, unassigned) [Example 4-7, 2-chloro-N,N-dimethyl-4-(4-(3-(3,3,3-trifluoro-2-hydroxy-N-methyl-2-phenylpropanamido)propyl)piperidin-1-yl)benzamide], for which, in assay [1], the “LXR alpha IP (nM)” value is “No IP” and the “LXR alpha actiivty at max dose (%)” value is on record as 12%. Moreover, in assay [2], the EC50 was found to be 369 nM and the “LXR beta actiivty at max dose (%)” value is 48%.
In the case of `CNC(=O)c1ccc(N2CCC3(CC2)C[C@H]3CCN(C)C(=O)[C@](O)(c2ccccc2)C(F)(F)F)cc1Cl` (single isomer, unassigned) [Example 7-7], in assay [1], the response was half-maximal at 504 nM (EC50) and the Emax came out at 42%. Besides, in assay [2], the half-maximal effective concentration (EC50) was found to be 22 nM and the Emax stood at 64%.
Consider `COc1cccc([C@@](O)(C(=O)N(C)C2CC(CC3CCN(c4ccc(C(=O)N(C)C)c(C)n4)CC3)C2)C(F)(F)F)c1` (single isomer, unassigned) [Example 11-1], for which, in assay [1], the “LXR alpha IP (nM)” value is on record as “No IP” and the Emax amounted to 0%. In assay [2], a half-maximal effect (EC50) was put at 727 nM and the Emax stood at 42%.
Take `COc1cccc([C@@](O)(C(=O)N(C)C2CC(CC3CCN(c4ccc(C(=O)N(C)C)c(C)n4)CC3)C2)C(F)(F)F)c1` (single isomer, unassigned) [first eluting peak]: in assay [2] (cis/trans isomers of Example 11-1 separated by Prep-HPLC (RT=1.95 min, 1.98 min), assay not given), the “activity (stated in words in the synthesis text)” value is reported as “not active”.
On to `CN(C)C(=O)c1ccc(N2CCC3(CC2)CC3CCN(C)C(=O)[C@](O)(c2cccc(OC(F)(F)F)c2)C(F)(F)F)cc1Cl` (stereo in doubt) [Example 7-4, 2-chloro-N,N-dimethyl-4-((R)-1-(2-((R)-3,3,3-trifluoro-2-hydroxy-N-methyl-2-(3-(trifluoromethoxy)phenyl)propanamido)ethyl)-6-azaspiro[2.5]octan-6-yl) benzamide], for which, in assay [1], the EC50 is 826 nM and the Emax amounted to 26%. In addition, in assay [2], it took 20 nM to reach a half-maximal effect (EC50) and the Emax stood at 64%.
With `COc1cccc([C@@](O)(C(=O)N(C)CCC2CC23CCN(c2ccc(C(=O)NC(C)C)c(Cl)n2)CC3)C(F)(F)F)c1` (stereo in doubt) [Example 7-19, 2-chloro-N-isopropyl-6-((R)-1-(2-((R)-3,3,3-trifluoro-2-hydroxy-2-(3-methoxyphenyl)-N-methylpropanamido)ethyl)-6-azaspiro[2.5]octan-6-yl)nicotinamide], in assay [1], the EC50 came out at 688 nM and the Emax came out at 27%. In assay [2], the 50% effective concentration (EC50) was determined as 76 nM and the Emax stood at 58%.
Regarding `CNC(=O)c1ccc(N2CCC3(CC2)CC3CCN(C)C(=O)[C@](O)(c2cccc(OC)c2)C(F)(F)F)nc1Cl` (stereo in doubt) [Example 7-20, 2-chloro-N-methyl-6-((R)-1-(2-((R)-3,3,3-trifluoro-2-hydroxy-2-(3-methoxyphenyl)-N-methylpropanamido)ethyl)-6-azaspiro[2.5]octan-6-yl)nicotinamide], the EC50 worked out at 1180 nM in assay [1] and 36 nM in assay [2]. In addition, the Emax in assay [1] is 40%; in assay [2], 60%.
In the case of `CN(C)C(=O)c1ccc(N2CCC(CCCN(C)C(=O)[C@](O)(c3ccccc3)C(F)(F)F)CC2)nc1Cl` [Example 1-1, (R)-2-chloro-N,N-dimethyl-6-(4-(3-(3,3,3-trifluoro-2-hydroxy-N-methyl-2-phenylpropanamido)propyl)piperidin-1-yl)nicotinamide], in assay [1], the concentration giving a half-maximal response (EC50) is 752 nM and the “LXR alpha actiivty at max dose (%)” value was 27%. Also, the “LXR beta actiivty at max dose (%)” value in assay [2] is given as 78%.
As to `CC(C)[C@](O)(C(=O)N(C)CCCC1CCN(c2ccc(C(=O)N(C)C)c(Cl)n2)CC1)c1ccccc1` [Example 1-2, (R)-2-chloro-6-(4-(3-(2-hydroxy-N,3-dimethyl-2-phenylbutanamido)propyl)piperidin-1-yl)-N,N-dimethylnicotinamide], in assay [1], the “LXR alpha IP (nM)” value was “No IP” and the Emax was 16%. In addition, in assay [2], the concentration for a half-maximal effect (EC50) was 259 nM and the Emax is 68%.
Consider `CC(C)[C@@](O)(C(=O)N(C)CCCC1CCN(c2ccc(C(=O)N(C)C)c(Cl)n2)CC1)C(F)(F)F` [Example 1-3, (R)-2-chloro-6-(4-(3-(2-hydroxy-N,3-dimethyl-2-(trifluoromethyl)butanamido)propyl)piperidin-1-yl)-N,N-dimethylnicotinamide], for which, in assay [1], the EC50 is 1780 nM and the Emax stood at 40%. In assay [2], the response was half-maximal at 159 nM (EC50) and the Emax stood at 102%.
On the same counts, the results for `CC(C)[C@](O)(C(=O)N(C)CCCC1CCN(c2ccc(C(=O)N(C)C)c(Cl)n2)CC1)C(F)(F)F` [Example 1-4, (S)-2-chloro-6-(4-(3-(2-hydroxy-N,3-dimethyl-2-(trifluoromethyl)butanamido)propyl)piperidin-1-yl)-N,N-dimethylnicotinamide] are 1180 nM, 52%, 82 nM and 92%.
For `CN(C)C(=O)c1ccc(N2CCC(CCCN(C)C(=O)[C@@]3(c4ccccc4F)CCCO3)CC2)nc1Cl` [Example 1-5, (S)-2-chloro-6-(4-(3-(2-(2-fluorophenyl)-N-methyl-tetrahydrofuran-2-carboxamido)propyl)piperidin-1-yl)-N,N-dimethylnicotinamide], in assay [1], the “LXR alpha IP (nM)” value was “No IP” and the Emax came to 6%. In assay [2], a half-maximal response (EC50) required 55 nM and the Emax stood at 82%.
Regarding `CN(C)C(=O)c1ccc(N2CCC(CCCN(C)C(=O)[C@]3(c4ccccc4F)CCCO3)CC2)nc1Cl` [Example 1-6, (R)-2-chloro-6-(4-(3-(2-(2-fluorophenyl)-N-methyl-tetrahydrofuran-2-carboxamido)propyl)piperidin-1-yl)-N,N-dimethylnicotinamide], in assay [1], the 50% effective concentration (EC50) was 1460 nM and the Emax turned out to be 27%. In assay [2], the half-maximal effective concentration (EC50) came to 64 nM and the Emax amounted to 80%.
`CN(C)C(=O)c1ccc(N2CCC(CCCN(C)C(=O)[C@@]3(C(F)(F)F)CCCO3)CC2)nc1Cl` [Example 1-7, (R)-2-chloro-N,N-dimethyl-6-(4-(3-(N-methyl-2-(trifluoromethyl)-tetrahydrofuran-2-carboxamido)propyl)piperidin-1-yl)nicotinamide]: in assay [1], the midpoint of the response, the EC50, lay at 2520 nM and the Emax stood at 57%. Moreover, in assay [2], the 50% effective concentration (EC50) amounted to 144 nM and the Emax stood at 94%.
